Test results as given in US10588321B2, “Method for using mustard meal or an extract thereof” (University of Idaho, priority 2015, dated 2020).

Key:
[1] = test system: liverwort; assay: Liverwort control by spraying; format: in vivo; conditions: for contribution to phytotoxicity, in words: liverwort; for liverwort control, in words: sprayed on liverwort
Description: The sinalbin had been hydrolyzed to undetectable levels.

[2] = test system: weeds, vegetative cover, wheat, cotton; conditions: cited from earlier work
[3] = test system: potato sprouting; conditions: in vivo; cited from earlier work

## OCc1ccc(O)cc1 [4-hydroxybenzyl alcohol]
[1]
  contribution to phytotoxicity, in words: primary phytotoxic compounds
  liverwort control, in words: did not control the liverwort as effectively as applying the extract
[1]; listed as 4-OH benzyl alcohol
  contribution to phytotoxicity, in words: more phytotoxic that SCN^−

## N#CCc1ccc(O)cc1 [4-hydroxyphenyl acetonitrile]
[1]
  contribution to phytotoxicity, in words: primary phytotoxic compounds
  liverwort control, in words: did not control the liverwort as effectively as applying the extract
[1]; listed as nitrile
  contribution to phytotoxicity, in words: much more phytotoxic than SCN^−

## N#CS [SCN^−, ionic thiocyanate]
[1]
  contribution to phytotoxicity, in words: minor contributor
[2]; effect no longer observed at 69 days post application
  rate causing inhibition of wheat germination: 342 kilograms SCN^−/ha
[2]; in vivo
  rate necessary for complete plant kill for 4 months: 1,366 kg SCN^−/ha
  rate removing a large percentage of the weeds: 137 kilograms SCN^−/ha
[2]; solutions sprayed directly on vegetative growth
  rate at which cotton defoliation was possible: 8.6 kilograms SCN^−/ha

## N.N#CS [ammonium thiocyanate (NH4SCN), ammonium thiocyanate]
[3]
  effect on potato sprouting, in words: promote potato sprouting

## N#C[S-].[K+] [potassium thiocyanate (KSCN), potassium thiocyanate]
[3]
  effect on potato sprouting, in words: promote potato sprouting

## N#C[S-].[Na+] [sodium thiocyanate (NaSCN), sodium thiocyanate]
[3]
  effect on potato sprouting, in words: promote potato sprouting
